System: H37Rv S315T (KatG mutant)
Assay type: cell-based, Mycobacterium tuberculosis

With `NNC(=O)c1ccncc1` [INH, Isoniazid] as the molecule, how does the “dependence of activity on KatG” value read?
The value was “dependent upon KatG”.

— patent US9579381B2 (priority 2012, dated 2017)
